According to US20060122148A1, “High affinity receptors for helicobacter pylori and use thereof” (priority 2002, published 2006):

How the values were obtained:
[1] = system: H. pylori strain CCUG 17874; assay: Chromatogram binding assay of 35S-labeled H. pylori to gangliosides on thin-layer plates; design: species or system Helicobacter pylori; conditions: for Amount at which binding was saturated: dilutions of gangliosides on thin-layer plates; for Binding to ganglioside (in words): strain CCUG 17874, thin-layer plates, non-binding = no binding at 4 μg
H. pylori strain J99 = assay: as above; design: species or system Helicobacter pylori
[2] = system: H. pylori strain CCGU 17874; assay: Overlay of TLC plates with radiolabeled bacteria (S-3-PG derivatives, glycolipids, neoglycolipids); type: binding, Helicobacter pylori; conditions: for Binding of H. pylori on TLC plates (in words): overlay with radiolabeled bacteria
H. pylori strain 032 = assay: Overlay of TLC plates with radiolabeled bacteria (PGCs); type: binding, Helicobacter pylori; conditions: 032 strain from broth

Row | Substance | Binding to ganglioside (in words) [1] | Binding to ganglioside (in words) (H. pylori strain J99) | also measured
1 | NeuAcα3Galβ4GlcNAcβ3Galβ4GlcNAcβ3Galβ4Glcβ1Cer [No. 8] | recognized | recognized | Amount at which binding was saturated [1]: approximately 100 pmole; Relative binding affinity ([1]; strain CCUG 17874, serial dilutions 1-100 pmole on thin-layer plates, densitometry): comparable to the binding of cholera toxin B-subunits to the GM1 ganglioside; Binding of H. pylori on TLC plates (in words) [2]: stronger than binding to sialoneotetraosylceramide
2 | NeuAcα3Galβ4Glcβ1Cer [No. 1] | inactive | – | –
3 | NeuAcα3Galβ4GlcNAcβ3Galβ4(Fucα3)GlcNAcβ3Galβ4Glcβ1Cer [No. 12] | recognized | – | –
4 | NeuAcα3Galβ4(Fucα3)GlcNAcβ3Galβ4(Fucα3)GlcNAcβ3Galβ4Glcβ1Cer [No. 13] | recognized | – | Amount at which binding was saturated [1]: approximately 100 pmole
5 | NeuAcα3Galβ4GlcNAcβ3Galβ4Glc-HDA (or -branched lipid) | – | – | Binding of H. pylori on TLC plates (in words) [2]: active
6 | NeuAcα3Galβ4GlcNAcβ6(NeuAcα3Galβ4GlcNAcβ3)Galβ4GlcNAcβ3Galβ4Glcβ1Cer [No. 16] | recognized | recognized | –
7 | Galα3(Fucα2)Galβ4GlcNAcβ6(NeuAcα3Galβ4GlcNAcβ3)Galβ4GlcNAcβ3Galβ4Glcβ1Cer [No. 19] | recognized | recognized | Detection level ([1]; thin-layer plates): approximately 100 pmole
8 | NeuAcα3Galβ4GlcNAcβ3Galβ4Glcβ1Cer [No. 2] | – | – | Binding of H. pylori on TLC plates (in words) (H. pylori strain 032): do not bind; Sensitivity of detection ([2]; some H. pylori batches): 0.3-0.4 pmol/mm^2
9 | NeuAcα3Galβ3(Fucα4)GlcNAcβ3Galβ4Glcβ1Cer [No. 6] | did not recognize | occasional binding | –
10 | NeuAcα3Galβ4GlcNAcβ3Galβ4GlcNAcβ3Galβ4GlcNAcβ3Galβ4Glcβ1Cer [No. 10] | recognized | – | –
